SMILES strings stand for the structures.

One assay has as its system pFGFR4 in MDA-MB-453 cells. Briefly: FGFR4 signaling, pFGFR4 (MDA); Western blot (Method A), MSD (Method B), ELISA (Method C). It counts as cell-based. The settings on record: Homo sapiens, MDA-MB-453, MDA-MB-453 cells; Method B (MSD) for signaling EC50 determination. The method, then:
The MDA-MB-453 protein concentrations were determined by a BCA Assay (Pierce, Rockford, Ill.). A sample of 50-100 μg of each lysate was separated by a 4-12% gradient (SDS-PAGE (Invitrogen)), transferred to a nitrocellulose membrane (Biorad, Hercules, Calif.), and probed with specific antibodies. Phospho-protein signals were quantitated using Odyssey Infrared Imaging (Li-Cor Biosciences).
To assess phospho-FGFR signaling, the blots were probed with anti-Phospho-FGFR (Y653/Y654) and total anti-FGFR antibodies. The phospho-FGFR signal was normalized to total FGFR expression for each sample.
`C=CC(=O)Nc1ccccc1Nc1ncc2nc(-c3cc(OC)cc(OC)c3)c(=O)n(C)c2n1` [Compound I-128] registered an EC50 greater than 1000 nM.

In the case of `CCC(=O)Nc1ccccc1Nc1ncc2c(n1)N(C)C(=O)N(c1c(Cl)c(OC)cc(OC)c1Cl)C2` [Compound I-235], the EC50 was 501 to 999 nM.

As for `CCC(=O)Nc1ccccc1Nc1ncc2c(n1)N(Cc1ccccc1)C(=O)N(c1c(Cl)c(OC)cc(OC)c1Cl)C2` [Compound I-236], the concentration giving a half-maximal response (EC50) was in the range of 101 to 500 nM.

Regarding `COc1cc(OC)cc(N2Cc3cnc(Nc4ccccc4)nc3N(C)C2=O)c1` [Compound I-237], the concentration for a half-maximal effect (EC50) fell in the range of 101 to 500 nM.

Staying with this assay, now noted: Homo sapiens; MDA-MB-453 cells; Method A (Western blot) for signaling EC50 determination.
As to `C=CC(=O)NCc1ccccc1Nc1ncc2c(n1)N(Cc1cccc(NC(=O)CC)c1)C(=O)N(c1c(Cl)c(OC)cc(OC)c1Cl)C2` [Compound I-179], the concentration for a half-maximal effect (EC50) is less than 100 nM.

For the compound `C=CC(=O)Nc1ccc(Nc2ncc3c(n2)N(Cc2cccc(NC(=O)CC)c2)C(=O)N(c2c(Cl)c(OC)cc(OC)c2Cl)C3)cc1` [Compound I-233], the concentration for a half-maximal effect (EC50) is less than 100 nM.

Still in this assay, the particulars now being: Homo sapiens; MDA-MB-453 cells; Method B (MSD) for signaling EC50 determination.
On to `C=CC(=O)Nc1cc(N2CCN(C(=O)CCC(=O)O)CC2)ccc1Nc1ncc2c(n1)N(C)C(=O)N(c1c(Cl)c(OC)cc(OC)c1Cl)C2` [Compound I-123], for which the EC50 is less than 100 nM.

The compound `C=CC(=O)Nc1ccccc1Nc1ncc2c(n1)N(CC1CC1)C(=O)N(c1c(Cl)c(OC)cc(OC)c1Cl)C2` [Compound I-130] displayed an EC50 of less than 100 nM.

In the case of `C=CC(=O)Nc1ccccc1Nc1ncc2c(n1)N(Cc1csc(C)n1)C(=O)N(c1c(Cl)c(OC)cc(OC)c1Cl)C2` [Compound I-134], the concentration giving a half-maximal response (EC50) is less than 100 nM.

`C=CC(=O)Nc1ccccc1Nc1ncc2c(n1)N(Cc1ccnc(N)c1)C(=O)N(c1c(Cl)c(OC)cc(OC)c1Cl)C2` [Compound I-135] returned an EC50 of less than 100 nM.

In the case of `C=CC(=O)Nc1ccccc1Nc1ncc2c(n1)N(Cc1ccn(C)n1)C(=O)N(c1c(Cl)c(OC)cc(OC)c1Cl)C2` [Compound I-136], the EC50 is less than 100 nM.

For the compound `C=CC(=O)Nc1cc(-c2cnn(C)c2)ccc1Nc1ncc2c(n1)N(C)C(=O)N(c1c(Cl)c(OC)cc(OC)c1Cl)C2` [Compound I-141], the concentration for a half-maximal effect (EC50) was less than 100 nM.

As to `C=C(C)C(=O)Nc1ccccc1Nc1ncc2c(n1)N(C)C(=O)N(c1c(Cl)c(OC)cc(OC)c1Cl)C2` [Compound I-142], the EC50 was in the range of 101 to 500 nM.

`C=CC(=O)Nc1ccccc1Nc1ncc2c(n1)N(Cc1ccc(F)c(N)c1)C(=O)N(c1c(Cl)c(OC)cc(OC)c1Cl)C2` [Compound I-144] showed an EC50 of less than 100 nM.

For `C=CC(=O)Nc1cc(-c2nnn(C)n2)ccc1Nc1ncc2c(n1)N(C)C(=O)N(c1c(Cl)c(OC)cc(OC)c1Cl)C2` [Compound I-145], the EC50 was less than 100 nM.

Consider `C=CC(=O)N[C@H]1CCCC[C@H]1Nc1ncc2c(n1)N(Cc1ccn(C)n1)C(=O)N(c1c(Cl)c(OC)cc(OC)c1Cl)C2` [Compound I-147], for which the concentration giving a half-maximal response (EC50) was less than 100 nM.

The compound `C=CC(=O)N[C@H]1CCCC[C@H]1Nc1ncc2c(n1)N(Cc1cnn(C)c1)C(=O)N(c1c(Cl)c(OC)cc(OC)c1Cl)C2` [Compound I-148] came in with a half-maximal effective concentration (EC50) of less than 100 nM.

The compound `C=CC(=O)Nc1cc(C(=O)NC2CCN(C)CC2)ccc1Nc1ncc2c(n1)N(C)C(=O)N(c1c(Cl)c(OC)cc(OC)c1Cl)C2` [Compound I-150] registered an EC50 of less than 100 nM.

Turning to `C=CC(=O)N[C@H]1CCCC[C@H]1Nc1ncc2c(n1)N(Cc1cn[nH]c1)C(=O)N(c1c(Cl)c(OC)cc(OC)c1Cl)C2` [Compound I-152], the concentration for a half-maximal effect (EC50) is less than 100 nM.

Consider `C=CC(=O)NCc1ccccc1Nc1ncc2c(n1)N(C)C(=O)N(c1c(Cl)c(OC)cc(OC)c1Cl)C2` [Compound I-181], for which the EC50 was less than 100 nM.

The assay is the same for the next values; noted with them: Homo sapiens; MDA-MB-453 cells; Method C (ELISA) for signaling EC50 determination.
In the case of `C=CC(=O)Nc1ccccc1CNc1ncc2c(n1)N(Cc1cccc(NC(=O)CC)c1)C(=O)N(c1c(Cl)c(OC)cc(OC)c1Cl)C2` [Compound I-180], the EC50 is less than 100 nM.

The test system of another assay is pFGFR4 in Huh7 cells. Put plainly: FGFR4 signaling, pFGFR4 (Huh); MSD (Method B). It counts as cell-based. Particulars: Homo sapiens, Huh-7, read-out: Signaling EC50 (nM) pFGFR4 (Huh).
Consider `C=CC(=O)NC1CCCCC1Nc1ncc2c(n1)N(C)C(=O)N(c1c(Cl)c(OC)cc(OC)c1Cl)C2` (racemic) [Compound I-19], for which the concentration for a half-maximal effect (EC50) lay in the range of 101 to 500 nM.

In the case of `C=CC(=O)Nc1ccccc1Nc1ncc2c(n1)N(C1CCN(CC)CC1)C(=O)N(c1cc(OC)cc(OC)c1)C2` [Compound I-80], the EC50 is greater than 1000 nM.

As for `C=CC(=O)Nc1ccccc1Nc1ncc2c(n1)N(C1CCNCC1)C(=O)N(c1cc(OC)cc(OC)c1)C2` [Compound I-81], the EC50 is greater than 1000 nM.

Consider `C=CC(=O)N[C@H]1CCCC[C@H]1Nc1ncc2c(n1)N(C)C(=O)N(c1c(Cl)c(OC)cc(OC)c1Cl)C2` [Compound I-95], for which the concentration giving a half-maximal response (EC50) lay in the range of 101 to 500 nM.

For the compound `C=CC(=O)N[C@H]1CCCC[C@H]1Nc1ncc2c(n1)N(Cc1cscn1)C(=O)N(c1c(Cl)c(OC)cc(OC)c1Cl)C2` [Compound I-114], the EC50 was 101 to 500 nM.

On to `C=CC(=O)Nc1cc(N2CCN(C(=O)CCCC(=O)NCCCOCCOCCOCCCNC(=O)CCCC[C@@H]3SC[C@@H]4NC(=O)N[C@@H]43)CC2)ccc1Nc1ncc2c(n1)N(C)C(=O)N(c1c(Cl)c(OC)cc(OC)c1Cl)C2` [Compound I-127], for which the EC50 was 101 to 500 nM.

On to `C=CC(=O)N[C@H]1CCCC[C@H]1Nc1ncc2cc(-c3c(Cl)c(OC)cc(OC)c3Cl)c(=O)n(C)c2n1` [Compound I-223], for which the concentration for a half-maximal effect (EC50) was less than 100 nM.

The same assay, now with this note: Homo sapiens, Huh-7; Huh7 cells; read-out: Signaling EC50 (nM) pFGFR4 (Huh).
Regarding `C=CC(=O)NC1CCCCC1Nc1ncc2c(n1)N(Cc1cccc(NC(=O)CC)c1)C(=O)N(c1c(Cl)c(OC)cc(OC)c1Cl)C2` (racemic) [Compound I-8], the concentration for a half-maximal effect (EC50) lay in the range of 101 to 500 nM.

As for `C=CC(=O)Nc1cc(C(F)(F)F)ccc1Nc1ncc2c(n1)N(Cc1ccccc1)C(=O)N(c1c(Cl)c(OC)cc(OC)c1Cl)C2` [Compound I-6], the concentration for a half-maximal effect (EC50) lay within 101 to 500 nM.

As to `C=CC(=O)NC1COCC1Nc1ncc2c(n1)N(C)C(=O)N(c1c(F)c(OC)cc(OC)c1F)C2` (centres unmarked) [Compound I-198], the 50% effective concentration (EC50) is less than 100 nM.

In the case of `C=CC(=O)NC1CS(=O)(=O)CC1Nc1ncc2c(n1)N(C)C(=O)N(c1c(Cl)c(OC)cc(OC)c1Cl)C2` (centres unmarked) [Compound I-200], the concentration for a half-maximal effect (EC50) fell in the range of 101 to 500 nM.

As to `C=CC(=O)NC1CN(c2ccncn2)CC1Nc1ncc2c(n1)N(C)C(=O)N(c1c(Cl)c(OC)cc(OC)c1Cl)C2` (centres unmarked) [Compound I-201], the concentration giving a half-maximal response (EC50) was in the range of 101 to 500 nM.

Turning to `C=CC(=O)NC1CN(c2ccn(C)n2)CC1Nc1ncc2c(n1)N(C)C(=O)N(c1c(Cl)c(OC)cc(OC)c1Cl)C2` (centres unmarked) [Compound I-204], the EC50 was less than 100 nM.

For `C=CC(=O)NC1COCC1Nc1ncc2c(n1)N(C)C(=O)N(c1c(Cl)c(OCC)cc(OCC)c1Cl)C2` (centres unmarked) [Compound I-205], the EC50 fell in the range of 101 to 500 nM.

On to `C=CC(=O)NC1COCC1Nc1ncc2c(n1)N(C)C(=O)N(c1c(F)c(OC)cc(OC)c1Cl)C2` (centres unmarked) [Compound I-206], for which the EC50 is less than 100 nM.

As to `C=CC(=O)NC1COCC1Nc1ncc2c(n1)N(C)C(=O)N(c1cc(OC)c(OC)c(OC)c1)C2` (centres unmarked) [Compound I-207], the EC50 is greater than 1000 nM.

Take `C=CC(=O)NC1COCC1Nc1ncc2c(n1)N(C)C(=O)N(c1c(Cl)c(OC)c(OC)c(OC)c1Cl)C2` (centres unmarked) [Compound I-208]: the EC50 is greater than 1000 nM.

Regarding `C=CC(=O)NC1COCC1Nc1ncc2c(n1)N(C)C(=O)N(c1ccc(OC)cc1)C2` (centres unmarked) [Compound I-209], the half-maximal effective concentration (EC50) is greater than 1000 nM.

Consider `C=CC(=O)NC1COCC1Nc1ncc2c(n1)N(Cc1cscn1)C(=O)N(c1c(Cl)c(OC)cc(OC)c1Cl)C2` (centres unmarked) [Compound I-210], for which the EC50 is less than 100 nM.

On to `C=CC(=O)NC1COCC1Nc1ncc2c(n1)N(CC1CC1)C(=O)N(c1c(Cl)c(OC)cc(OC)c1Cl)C2` (centres unmarked) [Compound I-212], for which the EC50 was less than 100 nM.

`C=CC(=O)NC1COCC1Nc1ncc2c(n1)N(Cc1cnn(C)c1)C(=O)N(c1c(Cl)c(OC)cc(OC)c1Cl)C2` (centres unmarked) [Compound I-213]: the 50% effective concentration (EC50) is less than 100 nM.

In the case of `C=CC(=O)NC1COCC1Nc1ncc2c(n1)N(Cc1cn[nH]c1)C(=O)N(c1c(Cl)c(OC)cc(OC)c1Cl)C2` (centres unmarked) [Compound I-214], the 50% effective concentration (EC50) is 101 to 500 nM.

Consider `C=CC(=O)NC1COCC1Nc1ncc2c(n1)N(Cc1ccn(C)n1)C(=O)N(c1c(Cl)c(OC)cc(OC)c1Cl)C2` (centres unmarked) [Compound I-215], for which the half-maximal effective concentration (EC50) was less than 100 nM.

As for `C=CC(=O)NC1COCC1Nc1ncc2c(n1)N(Cc1cc[nH]n1)C(=O)N(c1c(Cl)c(OC)cc(OC)c1Cl)C2` (centres unmarked) [Compound I-216], the EC50 was 101 to 500 nM.

With `C=CC(=O)NC1COCC1Nc1ncc2c(n1)N(CC)C(=O)N(c1c(Cl)c(OC)cc(OC)c1Cl)C2` (centres unmarked) [Compound I-217], the EC50 was less than 100 nM.

As for `C=CC(=O)N(C)C1COCC1Nc1ncc2c(n1)N(C)C(=O)N(c1c(Cl)c(OC)cc(OC)c1Cl)C2` (centres unmarked) [Compound I-218], the EC50 is greater than 1000 nM.

In the case of `C=CC(=O)N[C@H]1CCCC[C@H]1Nc1ncc2c(n1)N(C)C(=O)N(c1c(Cl)c(OCC)cc(OCC)c1Cl)C2` [Compound I-219], the 50% effective concentration (EC50) lay in the range of 501 to 999 nM.

Consider `C=CC(=O)N[C@H]1CCCC[C@H]1Nc1ncc2c(n1)N(C)C(=O)N(c1cc(OC)c(OC)c(OC)c1)C2` [Compound I-220], for which the EC50 was greater than 1000 nM.

On to `C=CC(=O)N[C@H]1CCCC[C@H]1Nc1ncc2c(n1)N(C)C(=O)N(c1c(Cl)c(OC)c(OC)c(OC)c1Cl)C2` [Compound I-221], for which the EC50 is greater than 1000 nM.

For the compound `C=CC(=O)N[C@H]1CCCC[C@H]1Nc1ncc2c(n1)N(C)C(=O)N(c1c(F)c(OC)cc(OC)c1Br)C2` [Compound I-228], the concentration for a half-maximal effect (EC50) was in the range of 101 to 500 nM.

As for `C=CC(=O)Nc1cc(OC)ccc1Nc1ncc2cc(-c3c(Cl)c(OC)cc(OC)c3Cl)c(=O)n(C)c2n1` [Compound I-242], the concentration for a half-maximal effect (EC50) is less than 100 nM.

On to `C=CC(=O)Nc1cc(C)ccc1Nc1ncc2cc(-c3c(Cl)c(OC)cc(OC)c3Cl)c(=O)n(C)c2n1` [Compound I-243], for which the EC50 was less than 100 nM.

The values are drawn from patent US10774052B2, “Heteroaryl compounds and uses thereof” (Celgene CAR LLC, priority 2013, dated 2020).
